From paper PMC6067878, “Lipoate-binding proteins and specific lipoate-protein ligases in microbial sulfur oxidation reveal an atpyical role for an old cofactor” (eLife, 2018) come the findings set out here.

The target of assay [1] is T1, TkLbpA1 (lipoate-binding protein LbpA1, TK90_0638) (Thioalkalivibrio sp. K90mix, UniProt D3SF86).
T1 construct: Strep- or His-tagged (pET22b), made in E. coli as apoprotein
T1 sequence (D3SF86 1-148): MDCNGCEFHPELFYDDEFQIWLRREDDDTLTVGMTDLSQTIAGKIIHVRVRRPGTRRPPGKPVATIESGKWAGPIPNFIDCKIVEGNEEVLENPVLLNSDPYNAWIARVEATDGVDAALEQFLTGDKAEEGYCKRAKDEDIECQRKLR
The assay is described as follows: MALDI mass spectrometry of enzymatic lipoylation. To be noted: covalent; lipoyl group attached to apo-protein by TkLplA with ATP, 37 °C.

Assay [2] addresses T2, TkLplA (LplA-like lipoate-protein ligase, TK90_0642) (Thioalkalivibrio sp. K90mix, UniProt D3SF90).
T2 construct: Strep- or His-tagged (pET22b), made in E. coli; single-domain ligase lacking the small domain
T2 sequence (D3SF90 1-363): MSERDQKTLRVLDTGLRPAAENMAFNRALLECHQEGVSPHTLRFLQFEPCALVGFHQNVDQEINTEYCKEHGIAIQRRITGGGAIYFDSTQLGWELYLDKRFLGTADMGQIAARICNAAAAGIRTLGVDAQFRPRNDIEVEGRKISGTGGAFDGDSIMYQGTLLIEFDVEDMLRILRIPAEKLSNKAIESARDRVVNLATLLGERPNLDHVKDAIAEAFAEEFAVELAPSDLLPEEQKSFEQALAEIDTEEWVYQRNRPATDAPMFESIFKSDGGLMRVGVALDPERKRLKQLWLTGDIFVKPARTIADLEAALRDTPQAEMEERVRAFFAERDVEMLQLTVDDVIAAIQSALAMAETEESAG
Description: TLC of lipoyl-AMP from [alpha-32P]ATP; MALDI of lipoylated acceptor. The settings on record: Mg2+, 50 mM sodium phosphate pH 7.8, 37 °C (adenylation), acceptors TkLbpA1 and TkLbpA2. The assay is classed as biochemical.

Assay [3] concerns the target T3, TkLbpA2 (lipoate-binding protein LbpA2, TK90_0640) (Thioalkalivibrio sp. K90mix, UniProt D3SF88).
T3 construct: gene gcvH; Strep- or His-tagged (pET22b), made in E. coli as apoprotein
T3 sequence (D3SF88 1-145): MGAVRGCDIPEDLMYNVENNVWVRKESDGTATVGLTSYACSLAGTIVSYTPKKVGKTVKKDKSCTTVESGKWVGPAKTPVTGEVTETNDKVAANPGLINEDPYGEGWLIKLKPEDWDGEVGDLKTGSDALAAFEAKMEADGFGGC
Description: MALDI mass spectrometry of enzymatic lipoylation. To be noted: covalent; lipoyl group attached to apo-protein by TkLplA with ATP, 37 °C.

For the compound `O=C(O)CCCC[C@@H]1CCSS1` (racemic) [lipoic acid, 1,2-dithiolane-3-pentanoic acid], the “MALDI mass spectrometry of enzymatic lipoylation” value in assay [1] and in assay [3] was “The overall lipoate ligase activity of LplA-like proteins was confirmed by mass spectrometry” throughout. Besides, the “TLC of lipoyl-AMP from [alpha-32P]ATP; MALDI of lipoylated acceptor” value in assay [2] was “synthesis of both octanoyl-adenylate and lipoyl-adenylate intermediates were readily demonstrated”.
